# From paper PMC7658073 (Clinical Pharmacokinetics, 2020)
# “Also recorded” adds a separate entry of the source.
# Columns and labels:
# Format in all cases: in vivo, human
# [1] = Phase I DDI study with sildenafil
# [2] = Phase I DDI study with sacubitril/valsartan; conditions: vericiguat at steady state with sacubitril/valsartan
# [3] = Phase I DDI study with midazolam
# [4] = sildenafil 100 mg with vericiguat vs with placebo
# [5] = midazolam with vericiguat 10 mg vs midazolam alone
SMILES,"Increase in AUC0–12,md (exposure) [2]","Increase in Cmax,md (peak concentration) [2]",other results
"CCCc1nn(C)c2c(=O)[nH]c(-c3cc(S(=O)(=O)N4CCN(C)CC4)ccc3OCC)nc12 [Sildenafil, reference compound]",,,"Increase in exposure of sildenafil [1, 4]: 13%; Increase in maximum concentration of sildenafil [1, 4]: 17%; Increase in exposure for sildenafil co-administered with vericiguat ([1]; sildenafil 25, 50 or 100 mg, vs sildenafil with placebo): ≤ 22.4%"
C[C@H](C[C@@H](Cc1ccc(-c2ccccc2)cc1)NC(=O)CCC(=O)O)C(=O)O [LBQ657],unchanged; also recorded: unaffected,unchanged; also recorded: unaffected,
"CCCCC(=O)N(Cc1ccc(-c2ccccc2-c2nnn[nH]2)cc1)[C@H](C(=O)O)C(C)C [Valsartan, reference compound]",12%,13%,
"Cc1ncc2n1-c1ccc(Cl)cc1C(c1ccccc1F)=NC2 [Midazolam, reference compound]",,,Reduction in midazolam exposure ([3]; after 3 days pre-treatment and 1 day co-treatment with vericiguat 10 mg): 18%
OCc1ncc2n1-c1ccc(Cl)cc1C(c1ccccc1F)=NC2 [1ʹ-hydroxy midazolam],,,"Decrease in AUC [3, 5]: 12%; Decrease in Cmax [3, 5]: 16%"
"CCOC(=O)[C@H](C)C[C@@H](Cc1ccc(-c2ccccc2)cc1)NC(=O)CCC(=O)O [Sacubitril, reference compound]",8%,18%,
